Data on 27 compounds can be found in US6534542B2, “(2-hydroxy)ethyl-thioureas useful as modulators of α2B adrenergic receptors” (Allergen Sales, Inc., priority 2001, dated 2003).

Where only a bound is given, the exact number is not on record here.

The test concerns the target T1, alpha2B receptor (Homo sapiens, UniProt P18089).
T1 construct: expressed in transfected cells; host or cells: NIH-3T3
T1 sequence (P18089 1-450): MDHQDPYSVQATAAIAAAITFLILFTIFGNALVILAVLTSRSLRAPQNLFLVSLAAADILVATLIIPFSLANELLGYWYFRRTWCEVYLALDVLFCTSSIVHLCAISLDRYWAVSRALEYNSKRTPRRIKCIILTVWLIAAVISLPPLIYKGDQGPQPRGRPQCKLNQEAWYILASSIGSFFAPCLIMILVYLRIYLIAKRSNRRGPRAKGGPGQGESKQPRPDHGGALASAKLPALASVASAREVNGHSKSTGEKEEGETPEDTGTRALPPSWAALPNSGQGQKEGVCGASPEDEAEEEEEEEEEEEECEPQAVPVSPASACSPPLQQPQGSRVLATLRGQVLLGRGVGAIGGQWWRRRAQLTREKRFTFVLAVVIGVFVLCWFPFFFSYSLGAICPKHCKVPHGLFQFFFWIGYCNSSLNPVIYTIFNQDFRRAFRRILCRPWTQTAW
The test is described as follows: Receptor Selection and Amplification Technology (RSAT) assay, alpha2B. The format is cell-based. As to conditions: NIH-3T3 cells; for EC50: NA = not active at concentrations less than 10 micromolar, read-out: RSAT EC50 (nM) Alpha 2B; for fraction of activity of the standard (brimonidine) attained, Alpha 2B (number in parenthesis): ratio of maximal effect to that of standard full agonist brimonidine. The text has this:
The compounds of the invention are agonists of α2 adrenergic receptors, particularly they tend to be specific or selective agonists of α2B and/or to a lesser extent α2C adrenergic receptors, in preference over α2A adrenergic receptors. […] Al., 1995, Pharmacol. Toxicol. 76, pp. 308-311 (incorporated herein by reference) and is also described below. Another reference pertinent to this assay is Conklin et al. (1993) Nature 363:274-6, also incorporated herein by reference.
The RSAT assay measures a receptor-mediated loss of contact inhibition that results in selective proliferation of receptor-containing cells in a mixed population of confluent cells. The increase in cell number is assessed with an appropriate transfected marker gene such as β-galactosidase, the activity of which can be easily measured in a 96-well format. Receptors that activate the G protein, Gq, elicit this response. Alpha2 receptors, which normally couple to Gi, activate the RSAT response when coexpressed with a hybrid Gq protein that has a Gi receptor recognition domain, called Gq/i5^2.
NIH-3T3 cells are plated at a density of 2×10^6 cells in 15 cm dishes and maintained in Dulbecco's modified Eagle's medium supplemented with 10% calf serum. One day later, cells are cotransfected by calcium phosphate precipitation with mammalian expression plasmids encoding p-SV-β-galactosidase (5-10 μg), receptor (1-2 μg) and G protein (1-2 μg). 40 μg salmon sperm DNA may also be included in the transfection mixture. Fresh media is added on the following day and 1-2 days later, cells are harvested and frozen in 50 assay aliquots. Cells are thawed and 100 μl added to 100 μl aliquots of various concentrations of drugs in triplicate in 96-well dishes. Incubations continue 72-96 hr at 37°. After washing with phosphate-buffered saline, β-galactosidase enzyme activity is determined by adding 200 μl of the chromogenic substrate (consisting of 3.5 mM o-nitrophenyl-β-D-galactopyranoside and 0.5% nonidet P-40 in phosphate buffered saline), incubating overnight at 30 and measuring optical density at 420 nm. The absorbance is a measure of enzyme activity, which depends on cell number and reflects a receptor-mediated cell proliferation. The EC50 and maximal effect of each drug at each alpha2 receptor is determined. The efficacy or intrinsic activity is calculated as a ratio of the maximal effect of the drug to the maximal effect of a standard full agonist for each receptor subtype. Brimonidine, also called […], the chemical structure of which is shown below, is used as the standard agonist for the alpha2A, alpha2B and alpha2C receptors. [drawing 6]
The results of the RSAT assay with several exemplary compounds of the invention are disclosed in Table 3. […] NA stands for “not active” at concentrations less than 10 micromolar. As is known EC50 is the concentration at which half of a given compound's maximal activity is observed. It can be seen from the table that the compounds of the invention are specific or selective agonists of α2B and/or α2C adrenergic receptors, with no agonist like activity or only with insignificant agonist-like activity on α2A receptors.

Take `C[C@@H]1CCC[C@@H]1NC(=S)NCCO` (relative stereo) [Compound 12, 1-(2-Hydroxy-ethyl)-3-(cis-2-methyl-cyclopentyl)-thiourea]: the EC50 was 1530 nM and the “fraction of activity of the standard (brimonidine) attained, Alpha 2B (number in parenthesis)” value (shortened to “fraction of activity of the standard”) is on record as “(0.47)”.

In the case of `C[C@H]1CCC[C@H](NC(=S)NCCO)C1` (relative stereo) [Compound 38, (trans)-1-(2-Hydroxy-ethyl)-3-(3-methyl-cyclohexyl)-thiourea], the EC50 was found to be 1150 nM and the “fraction of activity of the standard” value is “(0.4)”.

As for `C[C@H]1CCC[C@H](NC(=S)NCCO)C1` (single isomer, unassigned) [Compound 39, (cis)-1-(2-Hydroxy-ethyl)-3-(3-methyl-cyclohexyl)-thiourea], the concentration giving a half-maximal response (EC50) is 80 nM and the “fraction of activity of the standard” value is on record as “(0.65)”.

Regarding `OCCNC(=S)NCC1CCCCC1` [Compound 1, 1-Cyclohexylmethyl-3-(2-hydroxy-ethyl)-thiourea], the EC50 was found to be 204 nM and the “fraction of activity of the standard” value is “(0.61)”.

Take `CC(C)[C@@H]1CC[C@@H](C)C[C@H]1NC(=S)NCCO` [Compound 2, 1-(2-Hydroxy-ethyl)-3-(1R,2S,5R-2-isopropyl-5-methyl-cyclohexyl)-thiourea]: the EC50 turned out to be 189 nM and the “fraction of activity of the standard” value is reported as “(0.54)”.

Take `OCCNC(=S)NCC1=CCCCC1` [Compound 3, 1-(Cyclohex-1-enylmethyl)-3-(2-hydroxy-ethyl)-thiourea]: the EC50 was 877 nM and the “fraction of activity of the standard” value is “(0.8)”.

`OCCNC(=S)NCC1C=CCCC1` (stereo not drawn) [Compound 4, 1-(Cyclohex-2-enylmethyl)-3-(2-hydroxy-ethyl)-thiourea]: the EC50 worked out at 66 nM and the “fraction of activity of the standard” value is “(0.63)”.

Take `CCC[C@@H]1CCCC[C@H]1NC(=S)NCCO` [Compound 5, 1-(2-Hydroxy-ethyl)-3-((1R,2R)-2-propyl-cyclohexyl)-thiourea]: the concentration for a half-maximal effect (EC50) is 216 nM and the “fraction of activity of the standard” value is “(0.49)”.

For the compound `OCCNC(=S)NC1CCCCC1` [Compound 6, 1-Cyclohexyl-3-(2-hydroxy-ethyl)-thiourea], the 50% effective concentration (EC50) is 311 nM and the “fraction of activity of the standard” value is recorded as “(0.28)”.

For `OCCNC(=S)N[C@H]1CC[C@H](O)CC1` [Compound 7, 1-(4-Hydroxy-cyclohexyl)-3-(2-hydroxy-ethyl)-thiourea], the 50% effective concentration (EC50) was greater than 2000 nM and the “fraction of activity of the standard” value was “(0.32)”.

`OCCNC(=S)NCC1CCCC1` [Compound 9, 1-Cyclopentylmethyl-3-(2-hydroxy-ethyl)-thiourea]: the 50% effective concentration (EC50) amounted to 441 nM and the “fraction of activity of the standard” value is given as “(0.62)”.

As for `OCCNC(=S)NCC1CCCCCC1` [Compound 10, 1-Cycloheptylmethyl-3-(2-hydroxy-ethyl)-thiourea], the EC50 is 355 nM and the “fraction of activity of the standard” value is recorded as “(0.54)”.

As to `CC1CC=CCC1CNC(=S)NCCO` (stereo not drawn) [Compound 11, 1-(2-hydroxy-ethyl)-3-(6-methyl-cyclohex-3-enylmethyl)-thiourea], the concentration for a half-maximal effect (EC50) came to 20 nM and the “fraction of activity of the standard” value is given as “(0.93)”.

Regarding `CC1=CC(NC(=S)NCCO)CC1` (stereo not drawn) [Compound 13, 1-(2-Hydroxy-ethyl)-3-(3-methyl-cyclopent-2-enyl)-thiourea], the 50% effective concentration (EC50) came to 111 nM and the “fraction of activity of the standard” value is given as “(0.66)”.

Take `CC1=CC(NC(=S)NCCO)CCC1` (stereo not drawn) [Compound 16, 1-(2-Hydroxy-ethyl)-3-(3-methyl-cyclohex-2-enyl)-thiourea]: the concentration for a half-maximal effect (EC50) turned out to be 58 nM and the “fraction of activity of the standard” value is given as “(0.54)”.

Turning to `OCCNC(=S)NCC1=C(Cl)CCCC1` [Compound 17, 1-(2-chloro-cyclohex-1-enylmethyl)-3-(2-hydroxy-ethyl)thiourea], the 50% effective concentration (EC50) stood at 15 nM and the “fraction of activity of the standard” value was “(0.63)”.

`OCCNC(=S)NCC1=C(Br)CCCC1` [Compound 18, 1-(2-Bromo-cyclohex-1-enylmethyl)-3-(2-hydroxy-ethyl)-thiourea]: the EC50 turned out to be 10 nM and the “fraction of activity of the standard” value was “(0.77)”.

Regarding `CCC1=CC(CNC(=S)NCCO)CCC1` (stereo not drawn) [Compound 19, 1-(2-Hydroxy-ethyl)-3-(3-ethyl-cyclohex-2-enylmethyl)-thiourea], the 50% effective concentration (EC50) worked out at 55 nM and the “fraction of activity of the standard” value is given as “(0.46)”.

With `CC1=CC(CNC(=S)NCCO)CCC1` (stereo not drawn) [Compound 20, 1-(2-Hydroxy-ethyl)-3-(3-methyl-cyclohex-2-enylmethyl)-thiourea], the EC50 is 37 nM and the “fraction of activity of the standard” value is listed as “(0.78)”.

Regarding `CC1=CCCCC1CNC(=S)NCCO` (stereo not drawn) [Compound 21, 1-(2-Hydroxy-ethyl)-3-(2-methyl-cyclohex-2-enylmethyl)-thiourea], the concentration for a half-maximal effect (EC50) is 72 nM and the “fraction of activity of the standard” value is “(0.87)”.

Turning to `CCC1=CCCCC1CNC(=S)NCCO` (stereo not drawn) [Compound 22, 1-(2-Hydroxy-ethyl)-3-(2-ethyl-cyclohex-2-enylmethyl)-thiourea], the EC50 was found to be 126 nM and the “fraction of activity of the standard” value is reported as “(0.73)”.

With `CC1=C(CNC(=S)NCCO)CCCC1` [Compound 23, 1-(2-Hydroxy-ethyl)-3-(2-methyl-cyclohex-1-enylmethyl)-thiourea], the EC50 was found to be 125 nM and the “fraction of activity of the standard” value is listed as “(0.68)”.

Regarding `CCC1=C(CNC(=S)NCCO)CCCC1` [Compound 24, 1-(2-Hydroxy-ethyl)-3-(2-ethyl-cyclohex-1-enylmethyl)-thiourea], the concentration for a half-maximal effect (EC50) was 772 nM and the “fraction of activity of the standard” value is reported as “(0.71)”.

Turning to `CCCCC1=CCCC1CNC(=S)NCCO` (stereo not drawn) [Compound 26, 1-(2-Butyl-cyclopent-2-enylmethyl)-3-(2-hydroxy-ethyl)-thiourea], the EC50 was 816 nM and the “fraction of activity of the standard” value is given as “(0.48)”.

In the case of `CC1C=C(CNC(=S)NCCO)CC1` (stereo not drawn) [Compound 28, 1-(2-Hydroxy-ethyl)-3-(3-methyl-cyclopent-1-enylmethyl)-thiourea], the concentration giving a half-maximal response (EC50) turned out to be 544 nM and the “fraction of activity of the standard” value is listed as “(0.52)”.

Regarding `OCCNC(=S)NC1CCCC=C1Br` (stereo not drawn) [Compound 29, 1-(2-Bromo-cyclohex-2-enyl)-3-(2-Hydroxy-ethyl)-thiourea], the EC50 came out at 90 nM and the “fraction of activity of the standard” value is listed as “(0.84)”.

With `CCCC1=CCCCC1NC(=S)NCCO` (stereo not drawn) [Compound 30, 1-(2-Hydroxy-ethyl)-3-(2-propyl-cyclohex-2-enyl)-thiourea], the EC50 was 78 nM and the “fraction of activity of the standard” value was “(0.71)”.

The term EC50 denotes the concentration needed to bring the measured effect to its halfway point.
